This note sets out measurements from patent publication US9580437B2, “Triazolopyrimidine compounds and uses thereof” (Novartis AG, priority 2014, dated 2017).

pIC50: −log10 of the molar value.

The target of one assay is EED (1-441)-His protein (Homo sapiens (Human), UniProt O75530). Description: EED-H3K27Me3 peptide competition binding assay by AlphaScreen. The note with it: read-out: (a) IC50 EED Alphascreen binding Qualified. From the text:
EED-H3K27Me3 peptide competition binding assay by AlphaScreen (α-screen)
Background: In Alpha technology, singlet oxygen from a donor bead excites a nearby acceptor bead.

For assay [1], the target named is wild type PRC2 (wtPRC2) complex (Homo sapiens (Human), UniProt O75530). In words: EED LC-MS assay. Type of assay: biochemical. Conditions: read-out: (b) IC50 EED LC-MS Qualified. How it is done:
A 6 μL solution of 3 μM of the peptide substrate H3K27Me0 (histone H3[21-44]-biotin) in reaction buffer was added to initiate each reaction. […] ELISA (H3K27 Methylation) Assay

Sequence of wild type PRC2 (wtPRC2) complex (O75530 whole entry): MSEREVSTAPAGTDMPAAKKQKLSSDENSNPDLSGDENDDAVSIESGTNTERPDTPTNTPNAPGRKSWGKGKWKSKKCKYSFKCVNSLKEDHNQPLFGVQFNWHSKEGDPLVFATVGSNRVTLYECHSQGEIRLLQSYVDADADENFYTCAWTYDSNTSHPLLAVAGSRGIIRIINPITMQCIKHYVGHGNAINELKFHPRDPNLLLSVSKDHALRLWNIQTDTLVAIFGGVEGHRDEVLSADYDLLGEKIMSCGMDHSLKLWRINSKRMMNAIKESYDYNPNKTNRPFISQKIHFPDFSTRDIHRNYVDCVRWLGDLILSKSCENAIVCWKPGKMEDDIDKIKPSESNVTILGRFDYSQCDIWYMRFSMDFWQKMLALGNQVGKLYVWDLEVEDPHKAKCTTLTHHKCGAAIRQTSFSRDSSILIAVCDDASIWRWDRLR
Sequence of wild type PRC2 (wtPRC2) complex (Q15910 whole entry partner): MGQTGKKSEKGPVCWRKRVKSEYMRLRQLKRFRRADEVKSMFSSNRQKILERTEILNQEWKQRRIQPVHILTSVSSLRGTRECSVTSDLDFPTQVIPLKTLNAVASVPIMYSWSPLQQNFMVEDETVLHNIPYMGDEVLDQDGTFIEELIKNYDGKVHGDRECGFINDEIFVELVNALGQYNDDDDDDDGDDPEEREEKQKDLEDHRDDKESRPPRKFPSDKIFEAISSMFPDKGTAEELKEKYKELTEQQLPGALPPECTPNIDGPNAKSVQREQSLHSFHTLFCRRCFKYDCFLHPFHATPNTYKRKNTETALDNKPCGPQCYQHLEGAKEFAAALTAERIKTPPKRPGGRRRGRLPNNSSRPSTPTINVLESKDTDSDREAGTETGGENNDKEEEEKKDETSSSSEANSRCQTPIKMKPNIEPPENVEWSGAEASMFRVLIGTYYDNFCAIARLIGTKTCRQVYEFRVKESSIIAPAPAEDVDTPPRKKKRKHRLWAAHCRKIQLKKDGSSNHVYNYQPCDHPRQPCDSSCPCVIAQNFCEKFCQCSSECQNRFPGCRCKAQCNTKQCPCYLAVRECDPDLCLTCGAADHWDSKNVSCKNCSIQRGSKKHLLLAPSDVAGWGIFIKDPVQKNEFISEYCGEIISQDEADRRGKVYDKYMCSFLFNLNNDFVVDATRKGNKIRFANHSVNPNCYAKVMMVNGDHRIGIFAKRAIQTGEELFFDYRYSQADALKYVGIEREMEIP
Sequence of wild type PRC2 (wtPRC2) complex (Q15022 whole entry partner): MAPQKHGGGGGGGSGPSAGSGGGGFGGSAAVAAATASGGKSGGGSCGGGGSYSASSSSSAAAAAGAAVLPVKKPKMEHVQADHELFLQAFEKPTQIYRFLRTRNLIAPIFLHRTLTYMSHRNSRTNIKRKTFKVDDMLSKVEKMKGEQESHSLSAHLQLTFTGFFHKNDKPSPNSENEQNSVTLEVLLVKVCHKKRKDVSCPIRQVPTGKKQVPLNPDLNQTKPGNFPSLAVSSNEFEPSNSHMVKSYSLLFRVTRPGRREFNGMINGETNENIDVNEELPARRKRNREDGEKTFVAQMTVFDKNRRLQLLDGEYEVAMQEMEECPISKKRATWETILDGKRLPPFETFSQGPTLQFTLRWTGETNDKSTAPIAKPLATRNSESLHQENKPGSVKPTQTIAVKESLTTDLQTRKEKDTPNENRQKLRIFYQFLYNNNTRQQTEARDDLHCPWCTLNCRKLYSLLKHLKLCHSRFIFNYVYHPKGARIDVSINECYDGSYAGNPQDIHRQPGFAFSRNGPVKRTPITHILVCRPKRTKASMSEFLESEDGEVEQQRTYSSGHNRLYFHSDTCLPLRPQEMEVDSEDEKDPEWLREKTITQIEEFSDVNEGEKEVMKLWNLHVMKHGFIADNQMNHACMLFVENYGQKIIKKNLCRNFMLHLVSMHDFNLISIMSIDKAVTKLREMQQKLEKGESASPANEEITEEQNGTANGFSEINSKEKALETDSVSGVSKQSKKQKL
Sequence of EED (1-441)-His protein (O75530 whole entry): as the sequence (O75530 whole entry) above

For the compound `Cc1cc(-c2cnc(NCc3cccc4c3CCO4)n3cnnc23)cnc1N1CCN(C)CC1` [Example 36, N-((2,3-dihydrobenzofuran-4-yl)methyl)-8-(5-methyl-6-(4-methylpiperazin-1-yl)pyridin-3-yl)-[1,2,4]triazolo[4,3-c]pyrimidin-5-amine], the pIC50 (in general, −log10 of the IC50, conventionally taken in molar units) at EED (1-441)-His protein was 7.73; in assay [1] it was 7.65.

For `CCNC(=O)c1ccc(-c2cnc(NCc3cccc4c3CCO4)n3cnnc23)cn1` [Example 114, 5-(5-(((2,3-dihydrobenzofuran-4-yl)methyl)amino)-[1,2,4]triazolo[4,3-c]pyrimidin-8-yl)-N-ethylpicolinamide], the pIC50 was 7.81 at EED (1-441)-His protein and 7.73 in assay [1].

Take `Cc1cc(OC(F)F)ncc1-c1cnc(NCc2c(F)ccc3c2CCO3)n2cnnc12` [Example 197, 8-(6-(difluoromethoxy)-4-methylpyridin-3-yl)-N-((5-fluoro-2,3-dihydrobenzofuran-4-yl)methyl)-[1,2,4]triazolo[4,3-c]pyrimidin-5-amine]: the pIC50 is 8.66 at EED (1-441)-His protein and 8.24 in assay [1].

For the compound `COCCn1nc(C)c(-c2cnc(NCc3cccc4c3CCO4)n3cnnc23)c1C` [Example 66, N-((2,3-dihydrobenzofuran-4-yl)methyl)-8-(1-(2-methoxyethyl)-3,5-dimethyl-1H-pyrazol-4-yl)-[1,2,4]triazolo[4,3-c]pyrimidin-5-amine], the figures for the pIC50 (at EED (1-441)-His protein; in assay [1]) were 7.81 and 7.35, respectively.

Regarding `c1ccc(-c2cnc(NCc3cccc4c3CCO4)n3cnnc23)cc1` [Example 13, N-((2,3-dihydrobenzofuran-4-yl)methyl)-8-phenyl-[1,2,4]triazolo[4,3-c]pyrimidin-5-amine], the figures for the pIC50 (at EED (1-441)-His protein; in assay [1]) were 7.27 and 7.32, respectively.

On to `Cc1cc(C)c(-c2cnc(NCc3c(F)ccc4c3CCO4)n3cnnc23)cn1` [Example 222, 8-(4,6-dimethylpyridin-3-yl)-N-((5-fluoro-2,3-dihydrobenzofuran-4-yl)methyl)-[1,2,4]triazolo[4,3-c]pyrimidin-5-amine], for which the results for the pIC50 (at EED (1-441)-His protein; in assay [1]) were 7.93 and 7.85, respectively.

As for `c1cc(CNc2ncc(-c3ccc(C4CC4)nc3)c3nncn23)c2c(c1)OCC2` [Example 65, 8-(6-cyclopropylpyridin-3-yl)-N-((2,3-dihydrobenzofuran-4-yl)methyl)-[1,2,4]triazolo[4,3-c]pyrimidin-5-amine], the pIC50 was 7.74 at EED (1-441)-His protein and 7.70 in assay [1].

`c1cc(CNc2ncc(-c3ccncc3)c3nncn23)c2ccoc2c1` [Example 218, N-(benzofuran-4-ylmethyl)-8-(pyridin-4-yl)-[1,2,4]triazolo[4,3-c]pyrimidin-5-amine]: the pIC50 on EED (1-441)-His protein was 7.41; in assay [1], 7.58.

Consider `Fc1ccc2c(c1CNc1ncc(-c3cnn(C4CC4)c3)c3nncn13)CCO2` [Example 150, 8-(1-cyclopropyl-1H-pyrazol-4-yl)-N-((5-fluoro-2,3-dihydrobenzofuran-4-yl)methyl)-[1,2,4]triazolo[4,3-c]pyrimidin-5-amine], for which the pIC50 on EED (1-441)-His protein is 8.35; in assay [1], 8.15.

Turning to `O=C(c1ccc(-c2cnc(NCc3cccc4occc34)n3cnnc23)cc1)N1CCCC1` [Example 216, (4-(5-((benzofuran-4-ylmethyl)amino)-[1,2,4]triazolo[4,3-c]pyrimidin-8-yl)phenyl)(pyrrolidin-1-yl)methanone], the values for the pIC50 (at EED (1-441)-His protein; in assay [1]) were 6.88 and 6.74, respectively.

Take `Cc1noc(C)c1-c1cnc(NCc2cccc3c2CCO3)n2cnnc12` [Example 59, N-((2,3-dihydrobenzofuran-4-yl)methyl)-8-(3,5-dimethylisoxazol-4-yl)-[1,2,4]triazolo[4,3-c]pyrimidin-5-amine]: the pIC50 at EED (1-441)-His protein was 7.50; in assay [1], 7.41.

With `CN(C)CCc1cccc(-c2cnc(NCc3cccc4c3CCO4)n3cnnc23)c1` [Example 89, N-((2,3-dihydrobenzofuran-4-yl)methyl)-8-(3-(2-(dimethylamino)ethyl)phenyl)-[1,2,4]triazolo[4,3-c]pyrimidin-5-amine], the pIC50 on EED (1-441)-His protein is 8.35; in assay [1] it was 7.99.

Consider `CCOc1ccc(-c2cnc(NCc3cccc4c3CCO4)n3cnnc23)cn1` [Example 63, N-((2,3-dihydrobenzofuran-4-yl)methyl)-8-(6-ethoxypyridin-3-yl)-[1,2,4]triazolo[4,3-c]pyrimidin-5-amine], for which the pIC50 on EED (1-441)-His protein is 7.12; in assay [1], 7.16.

In the case of `CN(C)c1cc(F)c(-c2cnc(NCc3cccc4c3CCO4)n3cnnc23)cn1` [Example 112, N-((2,3-dihydrobenzofuran-4-yl)methyl)-8-(6-(dimethylamino)-4-fluoropyridin-3-yl)-[1,2,4]triazolo[4,3-c]pyrimidin-5-amine], the pIC50 (at EED (1-441)-His protein; in assay [1]) was 7.75 each time.

Consider `CS(=O)(=O)Nc1ccc(-c2cnc(NCc3cccc4c3CCO4)n3cnnc23)cc1` [Example 19, N-(4-(5-(((2,3-dihydrobenzofuran-4-yl)methyl)amino)-[1,2,4]triazolo[4,3-c]pyrimidin-8-yl)phenyl)methanesulfonamide], for which the negative logarithm of the IC50 (pIC50) (at EED (1-441)-His protein; in assay [1]) was 7.72 throughout.

Take `N#Cc1ccc(-c2cnc(NCc3cccc4c3CCO4)n3cnnc23)cn1` [Example 62, 5-(5-(((2,3-dihydrobenzofuran-4-yl)methyl)amino)-[1,2,4]triazolo[4,3-c]pyrimidin-8-yl)picolinonitrile]: the pIC50 is 7.80 at EED (1-441)-His protein and 7.53 in assay [1].

In the case of `COc1nccc(-c2cnc(NCc3c(F)ccc4c3CCO4)n3cnnc23)c1C` [Example 230, N-((5-fluoro-2,3-dihydrobenzofuran-4-yl)methyl)-8-(2-methoxy-3-methylpyridin-4-yl)-[1,2,4]triazolo[4,3-c]pyrimidin-5-amine], the pIC50 is 7.89 at EED (1-441)-His protein and 7.61 in assay [1].

In the case of `CN(C)Cc1ccc(-c2cnc(NCc3c(F)ccc4occc34)n3cnnc23)cc1` [Example 219, 8-(4-((dimethylamino)methyl)phenyl)-N-((5-fluorobenzofuran-4-yl)methyl)-[1,2,4]triazolo[4,3-c]pyrimidin-5-amine], the pIC50 at EED (1-441)-His protein is 8.19; in assay [1] it was 8.17.

Turning to `OCc1ncccc1-c1cnc(NCc2c(F)ccc3c2C(O)CO3)n2cnnc12` (stereo not drawn) [Example 243, 5-fluoro-4-(((8-(2-(hydroxymethyl)pyridin-3-yl)-[1,2,4]triazolo[4,3-c]pyrimidin-5-yl)amino)methyl)-2,3-dihydrobenzofuran-3-ol], the pIC50 on EED (1-441)-His protein is 7.81; in assay [1], 7.23.

With `Nc1ccc(-c2cnc(NCc3cccc4c3CCO4)n3cnnc23)cn1` [Example 48, 8-(6-aminopyridin-3-yl)-N-((2,3-dihydrobenzofuran-4-yl)methyl)-[1,2,4]triazolo[4,3-c]pyrimidin-5-amine], the pIC50 is 7.89 at EED (1-441)-His protein and 7.52 in assay [1].

Take `Cc1cc(C#N)ccc1-c1cnc(NCc2c(F)ccc3c2CCO3)n2cnnc12` [Example 178, 4-(5-(((5-fluoro-2,3-dihydrobenzofuran-4-yl)methyl)amino)-[1,2,4]triazolo[4,3-c]pyrimidin-8-yl)-3-methylbenzonitrile]: the pIC50 on EED (1-441)-His protein is 8.27; in assay [1] it was 8.15.
